Laboratory results published in US9023789B2, “Amylin analogs and pharmaceutical compositions thereof” (Novo Nordisk A/S, priority 2012, dated 2015).
≈ marks a conversion by molar mass, not a printed value. Where two headings read alike, the source gives them in different places. Numbered stars: 1 amine (or outer) side, 2 acyl side, 3 side chain; on linkers, the order of the positions; unused ones are H or OH. Bridge positions count the residues as written; N and C are the ends. Side chains are listed from the residue outwards. Peptide text beside a SMILES is read from it. * marks the point of attachment. C20 diacid = O=C(O)CCCCCCCCCCCCCCCCCCC(=O)*; γGlu = O=C(O)[C@H](CCC(=O)[*:2])N[*:1]; AEEA = NCCOCCOCC(=O)O

Legend:
[1] = biological target: T1, human amylin 3(a) receptor (human calcitonin receptor + RAMP-3) in BHK570 cells (Homo sapiens, UniProt O60896+P30988); assay: ASSAY (II)a functional assay, human amylin receptor (CRE luciferase); format: cell-based; conditions: for EC50: human amylin receptor functional potency, assay (II), read-out: hAmylin-R funct. EC50
T1 construct: expressed in transfected cells
T1 sequence (O60896 24-148, one chain of several): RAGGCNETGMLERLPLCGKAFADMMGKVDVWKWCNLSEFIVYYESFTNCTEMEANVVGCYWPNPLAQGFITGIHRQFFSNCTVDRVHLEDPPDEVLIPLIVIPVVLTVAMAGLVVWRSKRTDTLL
Outline: (§1)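 BHK CRE-luc cells, calcitonin (a) receptor ± RAMP-3 (amylin 3(a)); overnight seeding, 37° C/5% CO2. 3 h ligand exposure, DMEM/10% FBS/10 mM Hepes pH 7.4. LucLite 30 min RT; luminescence (SPC).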

[2] = biological target: T2, human calcitonin (a) receptor in BHK570 cells (Homo sapiens, UniProt P30988); assay: ASSAY (II)a functional assay, human calcitonin receptor (CRE luciferase); format: cell-based; conditions: read-out: hCTR funct. EC50
T2 construct: expressed in transfected cells
T2 sequence (P30988 25-474): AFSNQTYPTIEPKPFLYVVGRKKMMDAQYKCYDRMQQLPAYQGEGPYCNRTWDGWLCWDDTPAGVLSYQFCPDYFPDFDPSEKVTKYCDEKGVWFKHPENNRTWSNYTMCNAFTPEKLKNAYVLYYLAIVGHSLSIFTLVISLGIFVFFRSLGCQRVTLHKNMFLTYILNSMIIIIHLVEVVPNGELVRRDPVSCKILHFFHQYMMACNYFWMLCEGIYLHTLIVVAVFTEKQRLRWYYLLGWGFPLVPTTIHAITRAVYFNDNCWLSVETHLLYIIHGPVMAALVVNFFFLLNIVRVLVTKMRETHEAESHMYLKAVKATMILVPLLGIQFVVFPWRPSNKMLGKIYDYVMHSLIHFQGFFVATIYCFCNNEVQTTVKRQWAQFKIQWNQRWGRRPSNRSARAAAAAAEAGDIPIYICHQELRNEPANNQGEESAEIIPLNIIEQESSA
Outline: as §1

[3] = ASSAY (IV) determination of solubility; format: physicochemical
Outline: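 Polypeptide in water at […] mixed 1:1 with 100 mM buffers of pH 3.0-8.0 (glycylglycine pH 3-5, bistrispropane pH 6-8). Held 18 h at room temperature, then centrifuged; concentration remaining in solution measured by UPLC.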

[4] = biological target: T3, rat amylin receptor (rat calcitonin receptor + rat RAMP 3) (Rattus norvegicus, UniProt P32214+Q9JJ73); assay: ASSAY (VI) binding to the rat amylin receptor; conditions: for IC50: binding to rat amylin receptor, read-out: rAmylin-R bind IC50
T3 construct: expressed in transfected cells; host or cells: BHK tk'ts 13 (transient, FuGENE 6), membranes
T3 sequence (P32214 25-479 isoform P32214-2 limits assumed): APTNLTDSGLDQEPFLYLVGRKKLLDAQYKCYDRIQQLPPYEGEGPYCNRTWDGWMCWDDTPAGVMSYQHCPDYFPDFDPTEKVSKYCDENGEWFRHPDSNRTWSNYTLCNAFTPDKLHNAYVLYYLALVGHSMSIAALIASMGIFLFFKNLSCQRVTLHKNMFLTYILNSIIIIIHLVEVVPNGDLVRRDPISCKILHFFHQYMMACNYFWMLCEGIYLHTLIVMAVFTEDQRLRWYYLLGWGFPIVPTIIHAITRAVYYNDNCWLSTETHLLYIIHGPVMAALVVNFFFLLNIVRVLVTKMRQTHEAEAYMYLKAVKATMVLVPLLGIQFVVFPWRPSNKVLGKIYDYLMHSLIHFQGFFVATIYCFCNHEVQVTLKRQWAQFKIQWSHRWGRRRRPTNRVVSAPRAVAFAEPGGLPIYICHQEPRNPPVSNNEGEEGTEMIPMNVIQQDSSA
T3 sequence (Q9JJ73 23-147 partner): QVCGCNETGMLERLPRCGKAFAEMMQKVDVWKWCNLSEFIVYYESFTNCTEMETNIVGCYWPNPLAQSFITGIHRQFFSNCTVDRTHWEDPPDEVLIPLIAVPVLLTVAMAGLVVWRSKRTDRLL
Outline: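 This assay measured binding to the rat amylin receptor. BHK tk′ts 13 cells were transiently transfected with the rat calcitonin receptor using FuGENE® 6 (Roche), following the manufacturer's recommendations. About 48 hours after transfection, the cells were harvested and membranes were prepared from them for the binding determination.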

[5] = biological target: T4, human calcitonin receptor (Homo sapiens, UniProt P30988); assay: ASSAY (VII) binding to the human calcitonin receptor (SPA, 125I-Calcitonin); conditions: read-out: hCTR bind IC50;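 note: cell membranes (35 ng/µL) combined with SPA beads in 40 µL of pH 7.4 Hepes buffer, 384-well format, signal counted on a TopCounter instrument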
T4 construct: expressed in transfected cells
T4 sequence (P30988 25-474): T2 sequence (P30988 25-474)

[6] = hCTR funct. EC50 divided by hAmylin-R funct. EC50
[7] = hCTR funct. EC50 over hAmylin-R funct. EC50
[8] = human functional selectivity: hCTR funct. EC50 / hAmylin-R funct. EC50
[9] = bistrispropane buffer, pH 6.5, read-out: Solubility pH 6.5 Concentration
[10] = bistrispropane buffer, pH 7.5, read-out: Solubility pH 7.5 Concentration
[11] = bistrispropane buffer, pH 6.0, read-out: Solubility pH 6.0 Concentration
[12] = bistrispropane buffer, pH 7.0, read-out: Solubility pH 7.0 Concentration
[13] = bistrispropane buffer, pH 8.0, read-out: Solubility pH 8.0 Concentration
[14] = glycylglycine buffer, pH 3.0, read-out: Solubility pH 3.0 Concentration
[15] = glycylglycine buffer, pH 4.0, read-out: Solubility pH 4.0 Concentration
[16] = glycylglycine buffer, pH 5.0, read-out: Solubility pH 5.0 Concentration
[17] = Table 7, rat binding selectivity, rCTR IC50 / rAmylin-R IC50
[18] = Table 7a (preferred compounds), rat binding selectivity, rCTR IC50 / rAmylin-R IC50
[19] = ratio of rCTR bind IC50 to rAmylin-R bind IC50

Ratio hCT/hAmylin funct. [1, 6]	Ratio hCT/hAmylin funct. [1, 7]	EC50 [1] [nM]	Ratio hCT/hAmylin funct. [1, 8]	EC50 [2] [nM]	solubility at 18 h [3, 9] [µM]	solubility at 18 h [3, 10] [µM]	solubility at 18 h [3, 11] [µM]	solubility at 18 h [3, 12] [µM]	solubility at 18 h [3, 13] [µM]	solubility at 18 h [3, 14] [µM]	solubility at 18 h [3, 15] [µM]	solubility at 18 h [3, 16] [µM]	IC50 ([4]; Table 7) [nM]	Ratio rCT/rAmylin binding [4, 17]	Ratio rCT/rAmylin binding [4, 18]	Ratio rCT/rAmylin binding [4, 19]	IC50 [5] [nM]	SMILES
30.6	30.6	0.296	30.6	9.07	≥ 200	193 (≈ 868 µg/mL)	≥ 200	≥ 200	150 (≈ 674 µg/mL)	≥ 200	≥ 200	≥ 200	4.03	109.8	109.8	109.8	60.9	CC[C@H](C)[C@H](NC(=O)[C@H](C)NC(=O)CNC(=O)[C@H](Cc1ccccc1)NC(=O)[C@H](CC(N)=O)NC(=O)[C@@H]1CCCN1C(=O)[C@H](CO)NC(=O)[C@H](CO)NC(=O)[C@H](Cc1c[nH]cn1)NC(=O)[C@H](CCCNC(=N)N)NC(=O)[C@H](CC(C)C)NC(=O)[C@H](Cc1ccccc1)NC(=O)[C@@H](NC(=O)[C@H](C)NC(=O)[C@H](CC(C)C)NC(=O)[C@H](CCCNC(=N)N)NC(=O)[C@H](CCC(N)=O)NC(=O)[C@@H](NC(=O)[C@H](C)NC(=O)[C@@H]1CSSC[C@H](NC(=O)[C@@H](N)CCCCNC(=O)COCCOCCNC(=O)CC[C@H](NC(=O)CCCCCCCCCCCCCCCCCCC(=O)O)C(=O)O)C(=O)N[C@@H](CC(N)=O)C(=O)N[C@@H]([C@@H](C)O)C(=O)N[C@@H](C)C(=O)N[C@@H]([C@@H](C)O)C(=O)N1)[C@@H](C)O)[C@@H](C)O)C(=O)N1CCC[C@H]1C(=O)N[C@@H](CO)C(=O)N[C@@H](CO)C(=O)N[C@H](C(=O)N1CCC[C@H]1C(=O)N[C@H](C(=O)NCC(=O)N[C@@H](CO)C(=O)N[C@@H](CC(N)=O)C(=O)N[C@H](C(=O)N[C@@H](Cc1ccc(O)cc1)C(N)=O)[C@@H](C)O)C(C)C)[C@@H](C)O [Example 75] (H-K([AEEA-γGlu-C20 diacid])CNTATCATQRLATFLRHSSPNFGAIPSSTPVGSNTY-NH2; disulfide 2-7 (inferred); N-terminus assumed)
25.8	25.8	0.316	25.8	8.17	≥ 200	≥ 200	≥ 200	≥ 200	≥ 200	≥ 200	≥ 200	≥ 200	1.3	69.9	69.9	69.9	36.6	CC[C@H](C)[C@H](NC(=O)[C@H](C)NC(=O)CNC(=O)[C@H](Cc1ccccc1)NC(=O)[C@H](CC(N)=O)NC(=O)[C@@H]1CCCN1C(=O)[C@H](CO)NC(=O)[C@H](CO)NC(=O)[C@H](Cc1c[nH]cn1)NC(=O)[C@H](CCCNC(=N)N)NC(=O)[C@H](CC(C)C)NC(=O)[C@H](Cc1ccccc1)NC(=O)[C@H](CC(N)=O)NC(=O)[C@H](C)NC(=O)[C@H](CC(C)C)NC(=O)[C@H](CCCNC(=N)N)NC(=O)[C@H](CCC(N)=O)NC(=O)[C@@H](NC(=O)[C@H](C)NC(=O)[C@@H]1CSSC[C@H](NC(=O)[C@@H](N)CCCCNC(=O)COCCOCCNC(=O)CC[C@H](NC(=O)CCCCCCCCCCCCCCCCCCC(=O)O)C(=O)O)C(=O)N[C@@H](CC(N)=O)C(=O)N[C@@H]([C@@H](C)O)C(=O)N[C@@H](C)C(=O)N[C@@H]([C@@H](C)O)C(=O)N1)[C@@H](C)O)C(=O)N1CCC[C@H]1C(=O)N[C@@H](CO)C(=O)N[C@@H](CO)C(=O)N[C@H](C(=O)N[C@@H](CC(N)=O)C(=O)N[C@H](C(=O)NCC(=O)N[C@@H](CCCNC(=N)N)C(=O)N[C@@H](CC(N)=O)C(=O)N[C@H](C(=O)N[C@@H](Cc1ccc(O)cc1)C(N)=O)[C@@H](C)O)C(C)C)[C@@H](C)O [Example 78] (H-K([AEEA-γGlu-C20 diacid])CNTATCATQRLANFLRHSSPNFGAIPSSTNVGRNTY-NH2; disulfide 2-7 (inferred))
